Assay results: patent publication US20230114728A1 (Venatorx Pharmaceuticals, Inc., priority 2019, published 2023)
In brackets after ≈: the same amount, converted by molar mass.

Experiments:
Assay in all cases: Broth microdilution MIC in iron-depleted CAMHB (IDM)
Type in all cases: cell-based
[1] = system: P. aeruginosa (ΔmexAB-oprM); conditions: Pseudomonas aeruginosa, read-out: Minimum Inhibitory Concentration, P. aeruginosa ΔmexAB-OprM
Summary of the method: (§1)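 CLSI broth microdilution in Chelex-treated cation-adjusted Mueller-Hinton broth, refortified with Ca, Mg and 10 μM ZnSO4, pH 7.3. Inoculum 2-8×10^5 CFU/mL; 37 °C for 16-20 h (Pseudomonas) or 20-24 h (Acinetobacter). MIC read visually as lowest concentration without growth.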

A. baumannii ATCC 17978 = conditions: Acinetobacter baumannii, ATCC17978, read-out: Minimum Inhibitory Concentration, ATCC 17978
Summary of the method: as §1

P. aeruginosa ATCC 35151 = conditions: Pseudomonas aeruginosa, ATCC35151; iron-depleted MHB (IDM); hyper-permeable strain; read-out: Minimum Inhibitory Concentration, P. aeruginosa ATCC 35151
Summary of the method: as §1

[2] = system: A. baumannii CDC-0036 OXA-65, and OXA-24; conditions: Acinetobacter baumannii, read-out: Minimum Inhibitory Concentration, CDC-0036
Summary of the method: as §1

A. baumannii ATCC 19606 = conditions: Acinetobacter baumannii, ATCC19606, read-out: Minimum Inhibitory Concentration, ATCC 19606
Summary of the method: as §1

[3] = system: A. baumannii CDC-0083 producing NDM-1, PER-7, OXA-23, and OXA-69; conditions: Acinetobacter baumannii, read-out: Minimum Inhibitory Concentration, CDC-0083
Summary of the method: as §1

[4] = system: P. aeruginosa CDC-0095 producing OXA-50, and PAO; conditions: Pseudomonas aeruginosa, read-out: Minimum Inhibitory Concentration, P. aeruginosa CDC-0095
Summary of the method: as §1

[5] = system: A. baumannii IL123 (ABΔ3-ARAEcPore); conditions: Acinetobacter baumannii, read-out: Minimum Inhibitory Concentration, IL-2123
Summary of the method: as §1

P. aeruginosa ATCC 27853 = conditions: Pseudomonas aeruginosa, ATCC27853, read-out: Minimum Inhibitory Concentration, P. aeruginosa ATCC 27853
Summary of the method: as §1

[6] = system: P. aeruginosa CDC-0090 producing KPC-5, OXA-50, and PAO; conditions: Pseudomonas aeruginosa, read-out: Minimum Inhibitory Concentration, P. aeruginosa CDC-0090
Summary of the method: as §1

[7] = system: P. aeruginosa CDC-0054 producing VIM-4, OXA-50, and PAO; conditions: Pseudomonas aeruginosa, read-out: Minimum Inhibitory Concentration, P. aeruginosa CDC-0054
Summary of the method: as §1

[8] = system: A. baumannii CDC-0033 producing NDM-1, and OXA-94; conditions: Acinetobacter baumannii, read-out: Minimum Inhibitory Concentration, CDC-0033
Summary of the method: as §1

**Q.** For `CCN1CCN(C(=O)NC(C(=O)N[C@H]2Cc3ccc(F)c(C(=O)O)c3OB2O)c2c(F)cc(O)c(O)c2F)C(=O)C1=O` (stereo partly drawn) [Example 36, (3R)-3-(2-(2,6-difluoro-3,4-dihydroxyphenyl)-2-(4-ethyl-2,3-dioxopiperazine-1-carboxamido)acetamido)-7-fluoro-2-hydroxy-3,4-dihydro-2H-benzo[e][1,2]oxaborinine-8-carboxylic acid], which MIC [1] is on record?
**A.** 0.25 µg/mL (≈ 0.421 µM)

**Q.** What about the MIC (A. baumannii ATCC 17978) of the same compound?
**A.** 0.25 µg/mL (≈ 0.421 µM)

**Q.** And the MIC (P. aeruginosa ATCC 35151)?
**A.** 0.25 µg/mL (≈ 0.421 µM)

**Q.** What about the MIC [2] of the same compound?
**A.** 0.5 to 1 µg/mL (≈ 0.841 to 1.68 µM)

**Q.** And the MIC (A. baumannii ATCC 19606)?
**A.** 0.25 µg/mL (≈ 0.421 µM)

**Q.** And the MIC [3]?
**A.** 0.25 µg/mL (≈ 0.421 µM)

**Q.** What about the MIC [4] of the same compound?
**A.** 8 to 16 µg/mL (≈ 13.5 to 26.9 µM)

**Q.** What about the MIC [5] of the same compound?
**A.** 0.5 to 1 µg/mL (≈ 0.841 to 1.68 µM)

**Q.** And the MIC (P. aeruginosa ATCC 27853)?
**A.** 0.5 to 1 µg/mL (≈ 0.841 to 1.68 µM)

**Q.** What about the MIC [6] of the same compound?
**A.** 0.5 to 1 µg/mL (≈ 0.841 to 1.68 µM)

**Q.** And the MIC [7]?
**A.** 0.5 to 1 µg/mL (≈ 0.841 to 1.68 µM)

**Q.** And the MIC [8]?
**A.** 0.5 to 1 µg/mL (≈ 0.841 to 1.68 µM)

**Q.** What does the source list for `O=C(O)c1c(F)ccc2c1OB(O)[C@@H](NC(=O)C(NC(=O)N1CCN(CCF)C(=O)C1=O)c1c(F)cc(O)c(O)c1F)C2` (stereo partly drawn) [Example 37, (3R)-3-(2-(2,6-difluoro-3,4-dihydroxyphenyl)-2-(4-(2-fluoroethyl)-2,3-dioxopiperazine-1-carboxamido)acetamido)-7-fluoro-2-hydroxy-3,4-dihydro-2H-benzo[e][1,2]oxaborinine-8-carboxylic acid]?
**A.** MIC [1]: 0.25 µg/mL (≈ 0.408 µM); MIC (A. baumannii ATCC 17978): 0.25 µg/mL (≈ 0.408 µM); MIC (P. aeruginosa ATCC 35151): 0.25 µg/mL (≈ 0.408 µM); MIC [2]: 2 to 4 µg/mL (≈ 3.27 to 6.53 µM); MIC (A. baumannii ATCC 19606): 0.25 µg/mL (≈ 0.408 µM); MIC [3]: 0.5 to 1 µg/mL (≈ 0.817 to 1.63 µM); MIC [4]: 8 to 16 µg/mL (≈ 13.1 to 26.1 µM); MIC [5]: 2 to 4 µg/mL (≈ 3.27 to 6.53 µM); MIC (P. aeruginosa ATCC 27853): 2 to 4 µg/mL (≈ 3.27 to 6.53 µM); MIC [6]: 2 to 4 µg/mL (≈ 3.27 to 6.53 µM); MIC [7]: 2 to 4 µg/mL (≈ 3.27 to 6.53 µM); MIC [8]: 2 to 4 µg/mL (≈ 3.27 to 6.53 µM)

**Q.** With `O=C(O)c1ccc(C(NC(=O)c2ccc(O)c(O)c2Cl)C(=O)N[C@H]2Cc3cccc(C(=O)O)c3OB2O)cc1F` (stereo partly drawn) [Example 7, (3R)-3-(2-(4-carboxy-3-fluorophenyl)-2-(2-chloro-3,4-dihydroxybenzamido)acetamido)-2-hydroxy-3,4-dihydro-2H-benzo[e][1,2]oxaborinine-8-carboxylic acid] as the compound, how does the MIC [1] read?
**A.** 0.25 µg/mL (≈ 0.437 µM)

**Q.** And the MIC (A. baumannii ATCC 17978)?
**A.** 2 to 4 µg/mL (≈ 3.49 to 6.98 µM)

**Q.** And the MIC (P. aeruginosa ATCC 35151)?
**A.** 0.25 µg/mL (≈ 0.437 µM)

**Q.** What about the MIC [2] of the same compound?
**A.** 32 to 64 µg/mL (≈ 55.9 to 112 µM)

**Q.** And the MIC (A. baumannii ATCC 19606)?
**A.** 32 to 64 µg/mL (≈ 55.9 to 112 µM)

**Q.** What about the MIC [3] of the same compound?
**A.** 32 to 64 µg/mL (≈ 55.9 to 112 µM)

**Q.** And the MIC [4]?
**A.** 8 to 16 µg/mL (≈ 14 to 27.9 µM)

**Q.** What about the MIC [5] of the same compound?
**A.** 32 to 64 µg/mL (≈ 55.9 to 112 µM)

**Q.** And the MIC (P. aeruginosa ATCC 27853)?
**A.** 2 to 4 µg/mL (≈ 3.49 to 6.98 µM)

**Q.** And the MIC [6]?
**A.** 0.5 to 1 µg/mL (≈ 0.873 to 1.75 µM)

**Q.** What about the MIC [7] of the same compound?
**A.** 2 to 4 µg/mL (≈ 3.49 to 6.98 µM)

**Q.** And the MIC [8]?
**A.** 32 to 64 µg/mL (≈ 55.9 to 112 µM)

**Q.** `O=C(NC(C(=O)N[C@H]1Cc2ccc(F)c(C(=O)O)c2OB1O)c1ncc(O)cc1F)c1c(F)cc(O)c(O)c1Cl` (stereo partly drawn) [Example 10, (3R)-3-(2-(2-chloro-6-fluoro-3,4-dihydroxybenzamido)-2-(3-fluoro-5-hydroxypyridin-2-yl)acetamido)-7-fluoro-2-hydroxy-3,4-dihydro-2H-benzo[e][1,2]oxaborinine-8-carboxylic acid] was tested. Which MIC [1] did it give?
**A.** 0.5 to 1 µg/mL (≈ 0.86 to 1.72 µM)

**Q.** What about the MIC (A. baumannii ATCC 17978) of the same compound?
**A.** 32 to 64 µg/mL (≈ 55 to 110 µM)

**Q.** And the MIC (P. aeruginosa ATCC 35151)?
**A.** 0.25 µg/mL (≈ 0.43 µM)

**Q.** What about the MIC [2] of the same compound?
**A.** 32 to 64 µg/mL (≈ 55 to 110 µM)

**Q.** What about the MIC (A. baumannii ATCC 19606) of the same compound?
**A.** 32 to 64 µg/mL (≈ 55 to 110 µM)

**Q.** What about the MIC [3] of the same compound?
**A.** 32 to 64 µg/mL (≈ 55 to 110 µM)

**Q.** What about the MIC [4] of the same compound?
**A.** 2 to 4 µg/mL (≈ 3.44 to 6.88 µM)

**Q.** And the MIC [5]?
**A.** 32 to 64 µg/mL (≈ 55 to 110 µM)

**Q.** And the MIC (P. aeruginosa ATCC 27853)?
**A.** 0.5 to 1 µg/mL (≈ 0.86 to 1.72 µM)

**Q.** And the MIC [6]?
**A.** 0.5 to 1 µg/mL (≈ 0.86 to 1.72 µM)

**Q.** And the MIC [7]?
**A.** 2 to 4 µg/mL (≈ 3.44 to 6.88 µM)

**Q.** What about the MIC [8] of the same compound?
**A.** 32 to 64 µg/mL (≈ 55 to 110 µM)

**Q.** Which results are given for `NCCN1CCN(C(=O)N[C@@H](C(=O)N[C@H]2Cc3ccc(F)c(C(=O)O)c3OB2O)c2c(F)cc(O)c(O)c2F)C(=O)C1=O` (single isomer, unassigned) [Example 40]?
**A.** MIC [1]: 0.25 µg/mL (≈ 0.41 µM); MIC (A. baumannii ATCC 17978): 0.25 µg/mL (≈ 0.41 µM); MIC (P. aeruginosa ATCC 35151): 0.25 µg/mL (≈ 0.41 µM); MIC [2]: 2 to 4 µg/mL (≈ 3.28 to 6.57 µM); MIC (A. baumannii ATCC 19606): 0.5 to 1 µg/mL (≈ 0.821 to 1.64 µM); MIC [3]: 0.5 to 1 µg/mL (≈ 0.821 to 1.64 µM); MIC [4]: 2 to 4 µg/mL (≈ 3.28 to 6.57 µM); MIC [5]: 8 to 16 µg/mL (≈ 13.1 to 26.3 µM); MIC (P. aeruginosa ATCC 27853): 2 to 4 µg/mL (≈ 3.28 to 6.57 µM); MIC [6]: 8 to 16 µg/mL (≈ 13.1 to 26.3 µM); MIC [7]: 8 to 16 µg/mL (≈ 13.1 to 26.3 µM); MIC [8]: 2 to 4 µg/mL (≈ 3.28 to 6.57 µM)

**Q.** For `CCN1CCN(C(=O)NC(C(=O)N[C@H]2Cc3ccc(F)c(C(=O)O)c3OB2O)c2cc(F)c(O)c(O)c2Cl)C(=O)C1=O` (stereo partly drawn) [Example 42, (3R)-3-(2-(2-chloro-5-fluoro-3,4-dihydroxyphenyl)-2-(4-ethyl-2,3-dioxopiperazine-1-carboxamido)acetamido)-7-fluoro-2-hydroxy-3,4-dihydro-2H-benzo[e][1,2]oxaborinine-8-carboxylic acid], which MIC [1] is on record?
**A.** 0.25 µg/mL (≈ 0.409 µM)

**Q.** What about the MIC (A. baumannii ATCC 17978) of the same compound?
**A.** 0.25 µg/mL (≈ 0.409 µM)

**Q.** What about the MIC (P. aeruginosa ATCC 35151) of the same compound?
**A.** 0.25 µg/mL (≈ 0.409 µM)

**Q.** What about the MIC [2] of the same compound?
**A.** 0.5 to 1 µg/mL (≈ 0.819 to 1.64 µM)

**Q.** And the MIC (A. baumannii ATCC 19606)?
**A.** 0.25 µg/mL (≈ 0.409 µM)

**Q.** What about the MIC [3] of the same compound?
**A.** 0.25 µg/mL (≈ 0.409 µM)

**Q.** And the MIC [4]?
**A.** 0.5 to 1 µg/mL (≈ 0.819 to 1.64 µM)

**Q.** What about the MIC [5] of the same compound?
**A.** 0.5 to 1 µg/mL (≈ 0.819 to 1.64 µM)

**Q.** What about the MIC (P. aeruginosa ATCC 27853) of the same compound?
**A.** 0.5 to 1 µg/mL (≈ 0.819 to 1.64 µM)

**Q.** And the MIC [6]?
**A.** 0.25 µg/mL (≈ 0.409 µM)

**Q.** And the MIC [7]?
**A.** 0.5 to 1 µg/mL (≈ 0.819 to 1.64 µM)

**Q.** What about the MIC [8] of the same compound?
**A.** 0.5 to 1 µg/mL (≈ 0.819 to 1.64 µM)
